Laboratory results taken from patent US4510085A, “Antihypertensive tetrapeptide amides” (G.D. Searle & Co., priority 1984, dated 1985).
Non-standard residues stand in square brackets, D forms with d. Residues, ends and D or L forms follow the SMILES beside them. No end group written: not given here. *: point of attachment. NH(2-adamantyl) = C1C2CC3CC1CC(C2)C3N*; 2Nal = N[C@@H](Cc1ccc2ccccc2c1)C(=O)O; Sta = CC(C)C[C@H](N)[C@@H](O)CC(=O)O; NEtPhe = CCN[C@@H](Cc1ccccc1)C(=O)O; Isovaleryl = CC(C)CC(=O)*

Legend:
human renin = target: T1, human renin (Homo sapiens, UniProt P00797); assay: Inhibition of Human Renin; type: biochemical; conditions: angiotensin I formed by radioimmunoassay; considered active if inhibition was greater than 20%
T1 construct: tissue World Health Organization International Laboratory for Biological Standards (National Institute for Biological Standards and Control, London, England); host or cells: human kidney
T1 sequence (P00797 67-406): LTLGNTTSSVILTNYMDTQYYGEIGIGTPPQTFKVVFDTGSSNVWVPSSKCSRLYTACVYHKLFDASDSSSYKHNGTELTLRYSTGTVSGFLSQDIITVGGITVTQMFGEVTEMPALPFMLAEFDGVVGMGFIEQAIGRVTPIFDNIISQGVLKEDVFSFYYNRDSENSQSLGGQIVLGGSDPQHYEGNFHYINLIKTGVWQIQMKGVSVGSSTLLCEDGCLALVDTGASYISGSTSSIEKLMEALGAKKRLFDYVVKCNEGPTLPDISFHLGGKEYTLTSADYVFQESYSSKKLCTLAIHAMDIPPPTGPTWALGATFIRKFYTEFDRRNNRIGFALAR
Description: The renin inhibition activity of the compounds of this invention illustrated in the examples was tested by the following method.
International reference standard human renin, isolated from kidneys, was obtained from the World Health Organization International Laboratory for Biological Standards (National Institute for Biological Standards and Control, London, England). Renin activity is defined in "Goldblatt units" (GU), the quantity that, when injected directly into the blood stream of an unanesthetized dog, raises the direct mean femoral artery blood pressure by 30 mm Hg in about two minutes. E. Haas, L. Lewis, P. Scipione, and T. J. Koshy, Hypertension, 1, 112-117 (1979). Human angiotensinogen was used as an unisolated component of human blood plasma. The enzyme inhibition assay, see K. Poulsen, J. Burton, and E. Haber, Biochemistry, 12, 3877-3882 (1973), involved a two-hour incubation at 37° C. of the following final concentrations of reagents (0.25 ml total volume): 0.1 mGU/ml human renin; 0.05 ml human plasma; 6 mM disodium EDTA; 2.4 mM phenylmethylsulfonyl fluoride and 1.5 mM 8-hydroxyquinoline (angiotensinase inhibitors); 0.4 mg/ml bovine serum albumin; and 0.024 neomycin sulfate in 100 mM Tris-acetate buffer (pH 7.5). The enzymatic reaction was terminated by boiling the mixture for ten minutes. The quantity of angiotensin I formed was determined by radioimmunoassay, using the general method used in the angiotensin I radioimmunoassay kit of New England Nuclear.

Opiate receptor = assay: Opiate Receptor Binding; conditions: rat brain membrane homogenates, tritium-labeled naloxone
Description: Opiate receptor binding of the compounds of this invention illustrated in the examples was tested by the following method.
A 2 ml portion of the homogenate is incubated at 25° with the test compound (10 mcM) and tritium-labeled naloxone (1.0 nM). After sixty minutes, samples were rapidly cooled on ice, collected over glass-fiber filters, washed with cold buffer, and solubilized by incubation with 1.0 ml of NCS tissue solubilizer. Samples were then prepared for counting in a liquid scintillation counter. Specific binding was calculated, with results expressed as percent inhibition at the test dose.

[1] = system: sodium depleted Rhesus monkeys; assay: Rhesus Monkey Blood Pressure Test; type: in vivo
Description: Rhesus monkeys were sodium depleted by means of a fruit diet in combination with intramuscular furosemide injections (0.5 mg per kg of body weight) given twice daily for four days. This procedure causes blood pressure to become dependent on plasma renin activity. J. Burton, R. J. Cody, Jr., A. J. Herd, and E. Haber, Proc. Natl. Acad. Sci. U. S. A., 77, 5476-5479 (1980). On the fifth day the animals were anesthetized with ketamine (100 mg administered intravenously). The femoral artery was cannulated for blood pressure measurement and a percutaneous venous cannula was inserted for test compound administration. The animals were allowed to recover from anesthesia and were restrained in a transparent plastic chair. […]

[2] = system: Male Charles River albino mice; assay: PBQ-Writhing Assay; type: in vivo, mouse; conditions: analgesia if writhes equal to or less than one-half the control median
Description: (§1) The in vivo analgesic activity of the compounds of this invention illustrated in the examples was tested using the following hot-plate and writhing assays. Tyrosyl-N-(phenylpropyl)-D-alaninamide, a known analog of enkephalin, is active in these assays.
Male Charles River albino mice (CD-1(ICR)BR) weighing 20 to 30 grams were used in this assay. Thirty minutes after subcutaneous or intragastric administration (0.1 ml per 10 g of body weight) or fifteen minutes after intracerebroventricular administration (5 mcl total volume), a 0.025% solution of phenylbenzoquinone (PBQ) was injected intraperitoneally (0.1 ml per 10 g of body weight). Five minutes later each mouse was placed in a glass beaker and the number of writhes occurring in the next ten minutes was counted. (A writhe consists of dorsoflexion of the back, extension of the hindlimbs, and strong contraction of the abdominal musculature.) The test compound was considered to have produced analgesia in a mouse if the number of writhes elicited by PBQ was equal to or less than one-half the median number of writhes recorded for the saline-treated control group of mice that day. Results were expressed as the number of mice out of a possible ten in which the test compound produced analgesia. […]

Male Charles River mice = assay: Hot-plate Assay; type: in vivo, mouse; conditions: subcutaneous, dose active if 50% of the animals showed analgesia
Description: as §1
Male Charles River mice (COBS CD-1(ICR)BR) weighing 20 to 30 grams were used in this assay. Two groups of fourteen mice were placed individually in a restraining cylinder placed on a hot plate kept at 55° (±0.5°). The reaction time for each mouse to lick a foot or jump was measured three times at 20 minute intervals. Mice not responding within fifteen seconds were discarded. Twenty minutes after the last reaction experiment ten mice were given a dose of the test compound and ten were given 0.9% saline (each solution containing approximately 0.09 ml of a 1:1 mixture by volume of propylene glycol and polysorbate 80) subcutaneously. The response times of the animals were measured as before at 30, 60, 90, and 120 minute intervals after this injection. Mice not responding within 30 seconds were removed from the hot plate and given a response time of 30 seconds. […] The ED50 of each active test compound was then calculated. See N. B. Eddy, D. Leimbach, J. Pharmacol. and Exp. Therap., 107, 385-393 (1953).

[3] = system: renal-ligated hypertensive rat; assay: Renal-ligated Hypertensive Rat Assay; type: in vivo; conditions: renal-ligated rats
Description: Male Sprague Dawley rats aged 11 to 15 weeks old were used in this test. […] Test compounds were administered intra-arterially at a dose of 10 mg per kg of body weight, and blood pressure changes were monitored directly at 5, 10, and 15 minutes after injection.

In the case of `CSCC[C@@H](NC(=O)[C@@H](N)Cc1ccc2ccccc2c1)C(=O)NCC(=O)N[C@@H](Cc1ccccc1)C(=O)NC1C2CC3CC(C2)CC1C3.Cl` (stereo partly drawn) [Example 29, 3-(2-naphthalenyl)-L-alanyl-D-methionylglycyl-N-(2-adamantyl)-L-phenylalaninamide hydrochloride] (H-[2Nal][dM]GF-{NH(2-adamantyl)}), the renin inhibition activity (human renin) is reported as “possess renin inhibition activity” and the “opiate receptor binding relative to prior art compounds of U.S. Pat. No. 4,273,704” value (Opiate receptor) is reported as “significantly lower opiate receptor binding”.

`C[C@H](CS)C(=O)N1CCC[C@H]1C(=O)O` [captopril] was tested, and the mean blood pressure ([1]; 0.1 mg per kg) was “significantly lowered”.

For `C[C@@H](NC(=O)[C@@H](N)Cc1ccc(O)cc1)C(=O)NCCCc1ccccc1` [Tyrosyl-N-(phenylpropyl)-D-alaninamide], the “analgesic activity, PBQ writhing” value [2] was “active” and the “analgesic activity, hot-plate” value (Male Charles River mice) was “active”.

For “PHPFHFFVYK [RIP, prolylhistidylprolylphenylalanylhistidylphenylalanylphenylalanylvalyltyros yllysine]”, the mean blood pressure ([1]; 1.0 mg per kg) was “significantly lowered”.

With `CC(C)CC(=O)N[C@H](C(=O)N[C@H](C(=O)N[C@@H](CC(C)C)[C@@H](O)CC(=O)N[C@@H](C)C(=O)N[C@@H](CC(C)C)[C@@H](O)CC(=O)O)C(C)C)C(C)C` [Pepstatin] (Isovaleryl-VV[Sta]A[Sta]-OH) the renin inhibition activity (human renin) was “active”, the plasma renin activity [3] was “significantly reduced” and the “mean arterial blood pressure” value ([3]; intra-arterial administration, significance P≤0.05) was “significantly reduced”.

`CCN[C@@H](Cc1ccccc1)C(=O)N[C@H](CCSC)C(=O)NCC(=O)N[C@@H](Cc1ccccc1)C(=O)NC1C2CC3CC(C2)CC1C3.Cl` (stereo partly drawn) [Example 15, N^α -ethyl-L-phenylalanyl-D-methionylglycyl-N-(2-adamantyl)-L-phenylalaninamide hydrochloride] (H-[NEtPhe][dM]GF-{NH(2-adamantyl)}) was tested, and the renin inhibition activity (human renin) was “possess renin inhibition activity” and the “opiate receptor binding relative to prior art compounds of U.S. Pat. No. 4,273,704” value (Opiate receptor) was “significantly lower opiate receptor binding”.
